pEC50: −log10 of the molar value. *1 amine or outer side, *2 acyl side, *3 side chain or, on linkers, in order; H or OH if unused. Where a SMILES comes first, the peptide text is derived from it. Bridges are numbered along the chain shown (N, C = ends). [ ]: non-standard residue; d: D form. The star is where a group is joined. C20 diacid = O=C(O)CCCCCCCCCCCCCCCCCCC(=O)*; γGlu = O=C(O)[C@H](CCC(=O)[*:2])N[*:1]; Hyp = O=C(O)[C@@H]1C[C@@H](O)CN1; NMeI = CC[C@H](C)[C@H](NC)C(=O)O; Sar = CNCC(=O)O

The experiment concerns the target T1, human amylin receptor 3 (hAMYR3), hCTR2 co-expressed with hRAMP3 (Homo sapiens, UniProt O60896+P30988).
T1 construct: expressed in transfected cells
T1 sequence (P30988 25-474): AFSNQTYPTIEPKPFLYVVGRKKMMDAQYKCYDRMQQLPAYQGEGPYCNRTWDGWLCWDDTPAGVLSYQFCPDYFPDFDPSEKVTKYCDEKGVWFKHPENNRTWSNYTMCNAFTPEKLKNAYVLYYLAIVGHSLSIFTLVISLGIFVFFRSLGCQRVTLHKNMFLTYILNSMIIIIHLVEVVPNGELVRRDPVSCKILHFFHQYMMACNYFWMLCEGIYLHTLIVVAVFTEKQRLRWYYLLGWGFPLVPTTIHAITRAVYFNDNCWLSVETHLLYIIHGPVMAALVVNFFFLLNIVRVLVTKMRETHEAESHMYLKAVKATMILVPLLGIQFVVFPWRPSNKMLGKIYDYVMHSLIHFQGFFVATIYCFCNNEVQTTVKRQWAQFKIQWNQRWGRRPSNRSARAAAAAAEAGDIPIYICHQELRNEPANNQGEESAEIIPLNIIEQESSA
T1 sequence (O60896 24-148 partner): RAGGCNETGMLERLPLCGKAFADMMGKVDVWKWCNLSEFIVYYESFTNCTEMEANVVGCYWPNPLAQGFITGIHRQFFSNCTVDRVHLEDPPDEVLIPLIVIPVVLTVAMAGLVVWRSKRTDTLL
The experiment is described as follows: hAMYR3 cAMP assay (AlphaScreen) in COS7 cells. In kind it is cell-based. The note with it: cAMP induction, COS7 cells expressing hAMYR3; Table 1; read-out: hAMYR3 EC50. The source says:
The cell line COS7, originating from African Green Monkey kidney fibroblast cells, was used for establishment of the stable cell lines described below. The COS7 cellular background was used due to it being RAMP naïve, and as such it provides the best available system for testing of the monomeric hCTR and different heterodimeric amylin receptor subtypes functionally generated by introduction of the individual RAMPs.
A cell line expressing the human amylin receptor 3 (hAMYR3) was generated in the COS7 cellular background as stable clones. In brief, hCTR2 (GI:4502547) and hRAMP3 (GI:118572586) were amplified by PCR using primers encoding terminal restriction sites for subcloning. The 5′-end primers additionally encoded a near Kozak consensus sequence to ensure efficient translation. The fidelity of the DNA encoding the receptor was confirmed by DNA sequencing. The PCR products encoding the receptor were subcloned into a proprietary tri-cistronic mammalian expression vector with RAMP3, hCTR2 and neomycin (G418) resistance marker. The mammalian expression vector encoding the receptor was transfected into COS7 cells by a standard liposome transfection method. 48 hours post-transfection, cells were seeded for limited dilution cloning and selected with 1 mg/ml G418 in the culture medium. After 3 weeks, surviving colonies of hAMY3R-expressing cells were picked, propagated and tested in the amylin efficacy assay as described in Example 3 below. The functional generation of the amylin receptor phenotype was verified in the efficacy assay by a left-shifted efficacy response to amylin relative to monomeric calcitonin receptor, and one hAMYR3-expressing clone was chosen for compound profiling.
In vitro activity of test peptides at the hCTR2 and hAMYR3 receptors was assessed by measuring the induction of cAMP following stimulation of the receptor using the AlphaScreen® cAMP Assay kit from Perkin-Elmer.
Briefly, COS7 cells expressing hCTR2 (see Example 2, above) were seeded at 30-40,000 cells per well in 96-well microtiter plates coated with 0.01% poly-L-lysine, and grown for 1 day in culture in 100 μl growth medium [DMEM, 10% FCS, Penicillin (100 IU/ml), Streptomycin (100 μg/ml)]. On the day of analysis, growth medium was removed and the cells were washed once with 200 μl Tyrode buffer [Tyrode's Salts (9.6 g/I), 10 mM HEPES, pH 7.4]. Cells were incubated in 100 μl Tyrode buffer containing increasing concentrations of test peptides, 100 µM IBMX and 0.1% casein for 15 min at 37° C. The reaction was stopped by carefully decanting off the compound/buffer medium and replacing it with lysis/detection buffer (80 μl 0.1% w/v BSA, 5 mM HEPES, 0.3% v/v Tween-20 in deionized water). After incubation at room temperature for 10 min., the cAMP content of the resulting cell lysate was estimated according to the AlphaScreen® cAMP Assay manufacturer's instructions. EC50 values were estimated by computer-aided curve fitting using the 4-parameter logistic (4PL) non-linear model.
Background: Changes in cAMP serve as a functional read-out for many G protein-coupled receptors.

Regarding `CC[C@H](C)[C@@H](C(=O)N[C@@H](CC(C)C)C(=O)N[C@@H](CO)C(=O)N[C@@H](CO)C(=O)N[C@H](C(=O)N[C@@H](CC(=O)O)C(=O)N[C@H](C(=O)NCC(=O)N[C@@H](CO)C(=O)N[C@@H](CC(=O)O)C(=O)N[C@H](C(=O)N1CCC[C@H]1C(N)=O)[C@@H](C)O)C(C)C)[C@@H](C)O)N(C)C(=O)[C@H](C)NC(=O)CN(C)C(=O)[C@H](Cc1ccccc1)NC(=O)[C@H](CO)NC(=O)[C@H](CO)NC(=O)[C@H](CCCNC(=N)N)NC(=O)[C@@H](NC(=O)[C@H](CC(C)C)NC(=O)[C@H](Cc1ccccc1)NC(=O)[C@H](Cc1c[nH]cn1)NC(=O)[C@H](C)NC(=O)[C@H](CC(C)C)NC(=O)[C@H](CCCNC(=N)N)NC(=O)[C@H](CC(=O)O)NC(=O)[C@@H](NC(=O)[C@H](C)NC(=O)[C@@H]1CSSC[C@H](NC(=O)[C@H](CCCNC(=N)N)NC(=O)CC[C@H](NC(=O)CCCCCCCCCCCCCCCCCCC(=O)O)C(=O)O)C(=O)N2CCC[C@H]2C(=O)N[C@@H]([C@@H](C)O)C(=O)N[C@@H](C)C(=O)N[C@@H]([C@@H](C)O)C(=O)N1)[C@@H](C)O)C(C)C` [Compound 23, [19CD]-isoGlu-R-C( )-PTAT-C( )-ATDRLAHFLVRSSF-Gly(Me)-A-Ile(Me)-LSSTDVGSDTP-NH2] ({C20 diacid-γGlu}-RCPTATCATDRLAHFLVRSSF[Sar]A[NMeI]LSSTDVGSDTP-NH2; disulfide 2-7), the pEC50 (commonly −log10 of the EC50, conventionally taken in molar units) was 9.89. As to `CC[C@H](C)[C@@H](C(=O)N[C@@H](CC(C)C)C(=O)N[C@@H](CO)C(=O)N[C@@H](CO)C(=O)N[C@H](C(=O)N[C@@H](CC(=O)O)C(=O)N[C@H](C(=O)NCC(=O)N[C@@H](CO)C(=O)N[C@@H](CC(N)=O)C(=O)N[C@H](C(=O)N1CCC[C@H]1C(N)=O)[C@@H](C)O)C(C)C)[C@@H](C)O)N(C)C(=O)[C@H](C)NC(=O)CN(C)C(=O)[C@H](Cc1ccccc1)NC(=O)[C@H](CO)NC(=O)[C@H](CO)NC(=O)[C@H](CCCNC(=N)N)NC(=O)[C@H](Cc1c[nH]cn1)NC(=O)[C@H](CC(C)C)NC(=O)[C@H](Cc1ccccc1)NC(=O)[C@H](Cc1c[nH]cn1)NC(=O)[C@H](C)NC(=O)[C@H](CC(C)C)NC(=O)[C@H](CCCNC(=N)N)NC(=O)[C@H](CC(=O)O)NC(=O)[C@@H](NC(=O)[C@H](C)NC(=O)[C@@H]1CSSC[C@H](NC(=O)[C@H](CCCNC(=N)N)NC(=O)CC[C@H](NC(=O)CCCCCCCCCCCCCCCCCCC(=O)O)C(=O)O)C(=O)N2CCC[C@H]2C(=O)N[C@@H]([C@@H](C)O)C(=O)N[C@@H](C)C(=O)N[C@@H]([C@@H](C)O)C(=O)N1)[C@@H](C)O` [Compound 25, [19CD]-isoGlu-R-C( )-PTAT-C( )-ATDRLAHFLHRSSF-Gly(Me)-A-Ile(Me)-LSSTDVGSNTP-NH2] ({C20 diacid-γGlu}-RCPTATCATDRLAHFLHRSSF[Sar]A[NMeI]LSSTDVGSNTP-NH2; disulfide 2-7), the pEC50 is 10.03.

Turning to `CC[C@H](C)[C@@H](C(=O)N[C@@H](CC(C)C)C(=O)N[C@@H](CO)C(=O)N[C@@H](CO)C(=O)N[C@H](C(=O)N[C@@H](CCC(=O)O)C(=O)N[C@H](C(=O)NCC(=O)N[C@@H](CO)C(=O)N[C@@H](CCC(=O)O)C(=O)N[C@H](C(=O)N1CCC[C@H]1C(N)=O)[C@@H](C)O)C(C)C)[C@@H](C)O)N(C)C(=O)[C@H](C)NC(=O)CN(C)C(=O)[C@H](Cc1ccccc1)NC(=O)[C@H](CO)NC(=O)[C@H](CO)NC(=O)[C@H](CCCNC(=N)N)NC(=O)[C@H](Cc1c[nH]cn1)NC(=O)[C@H](CC(C)C)NC(=O)[C@H](Cc1ccccc1)NC(=O)[C@H](Cc1c[nH]cn1)NC(=O)[C@H](C)NC(=O)[C@H](CC(C)C)NC(=O)[C@H](CCCNC(=N)N)NC(=O)[C@H](CCC(=O)O)NC(=O)[C@@H](NC(=O)[C@H](C)NC(=O)[C@@H]1CSSC[C@H](NC(=O)[C@H](CCCNC(=N)N)NC(=O)CC[C@H](NC(=O)CCCCCCCCCCCCCCCCCCC(=O)O)C(=O)O)C(=O)NCC(=O)N[C@@H]([C@@H](C)O)C(=O)N[C@@H](C)C(=O)N[C@@H]([C@@H](C)O)C(=O)N1)[C@@H](C)O` [Compound 26, [19CD]-isoGlu-R-C( )-GTAT-C( )-ATERLAHFLHRSSF-Gly(Me)-A-Ile(Me)-LSSTEVGSETP-NH2] ({C20 diacid-γGlu}-RCGTATCATERLAHFLHRSSF[Sar]A[NMeI]LSSTEVGSETP-NH2; disulfide 2-7), the pEC50 is 9.92. As for `CC[C@H](C)[C@@H](C(=O)N[C@@H](CC(C)C)C(=O)N[C@@H](CO)C(=O)N[C@@H](CO)C(=O)N[C@H](C(=O)N[C@@H](CCC(=O)O)C(=O)N[C@H](C(=O)NCC(=O)N[C@@H](CO)C(=O)N[C@@H](Cc1ccccc1)C(=O)N[C@H](C(=O)N1C[C@H](O)C[C@H]1C(N)=O)[C@@H](C)O)C(C)C)[C@@H](C)O)N(C)C(=O)[C@H](C)NC(=O)CN(C)C(=O)[C@H](Cc1ccccc1)NC(=O)[C@H](CO)NC(=O)[C@H](CO)NC(=O)[C@H](CCCNC(=N)N)NC(=O)[C@@H](NC(=O)[C@H](CC(C)C)NC(=O)[C@H](Cc1ccccc1)NC(=O)[C@H](CC(=O)O)NC(=O)[C@H](C)NC(=O)[C@H](CC(C)C)NC(=O)[C@H](CCCNC(=N)N)NC(=O)[C@H](CCC(=O)O)NC(=O)[C@@H](NC(=O)[C@H](C)NC(=O)[C@@H]1CSSC[C@H](NC(=O)[C@H](CCCNC(=N)N)NC(=O)CC[C@H](NC(=O)CCCCCCCCCCCCCCCCCCC(=O)O)C(=O)O)C(=O)NCC(=O)N[C@@H]([C@@H](C)O)C(=O)N[C@@H](C)C(=O)N[C@@H]([C@@H](C)O)C(=O)N1)[C@@H](C)O)[C@@H](C)O` [Compound 42, [19CD]-isoGlu-R-C( )-GTAT-C( )-ATERLADFLTRSSF-Gly(Me)-A-Ile(Me)-LSSTEVGSFT-Hyp-NH2] ({C20 diacid-γGlu}-RCGTATCATERLADFLTRSSF[Sar]A[NMeI]LSSTEVGSFT[Hyp]-NH2; disulfide 2-7), the figure is 9.47.

The values are drawn from patent US20210115104A1, “AMYLIN ANALOGUES” (Zealand Pharma A/S, priority 2015, published 2021).
